Where two headings read alike, the source gives them in different places. Blank lines part the entries; values can stand above or below the compound they belong to. Non-standard residues stand in square brackets, D forms with d. Residues, ends and D or L forms follow the SMILES beside them. NMeR = CN[C@@H](CCCNC(=N)N)C(=O)O; NMeA = CN[C@@H](C)C(=O)O
Molecular target: Sushi domains (SD1/2) protein
Experiment: Fluorescence polarization (FP) competition assay with AJAP-1probe, calculated Ki
Type: binding
Description: Fluorescence polarization (FP). FP assay was employed to determine the binding affinity of peptides in flat bottom black 384-well plates (Corning Life Science) using a Safire2 plate reader (Tecan). All experiments were conducted in 1×PBS (pH 7.4) containing 1% bovine serum albumin (BSA) at rt. The fluorescence polarization values were measured using excitation/emission wavelengths of 530/580 nm. The instrumental Z-factor was adjusted to obtain the maximum fluorescence intensity and the G-factor was calibrated to give an initial millipolarization value of 20 mP. All FP assays including saturation or competition experiments were performed using 25 nM of TAMRA labeled peptides as probes. For saturation assay, the millipolarization values were measured after mixing of probes with 12 serial 1 to 1 diluted concentrations of Sushi domains (SD1/2) protein. All experiments were performed in triplicate and the data were plotted to the one-site binding model using GraphPad Prism 9 to calculate the Kd of probes. […] The experiments were performed at least in triplicate and the data were fitted to the sigmoidal dose response curve using GraphPad Prism 9 to obtain the IC50 of peptides. The Ki values were calculated according to Nikolovska-Coleska et al^310.

[1] = Table 10, deep mutational scanning validation variants of APPWT, read-out: Ki (nM) mean ± SEM
[2] = Table 12, deep mutational scanning validation variants of PIANPWT, read-out: Ki (nM) mean ± SEM
[3] = Table 9, Ala-, D-amino acids and N-methylation scans of PIANPWT, read-out: Ki (nM) mean ± SEM
[4] = Table 1, affinity maturation, mean ± SEM, n ≥ 3, read-out: Ki
[5] = Table 13, peptides for affinity maturation, read-out: Ki (nM) mean ± SEM

Structure (SMILES): CC[C@H](C)[C@H](NC(=O)[C@H](Cc1ccccc1)NC(=O)[C@H](CCC(=O)O)NC(=O)[C@@H](NC(=O)[C@H](CCC(=O)O)NC(C)=O)[C@@H](C)O)C(=O)N[C@@H](C)C(=O)N[C@@H](Cc1c[nH]c2ccccc12)C(=O)NCC(=O)N1CCC[C@H]1C(=O)N[C@H](C(=O)NCC(=O)N[C@@H](CC(=O)O)C(=O)N[C@@H](Cc1ccccc1)C(=O)N[C@@H](CC(=O)O)C(N)=O)[C@@H](C)O (Ac-ETEFIAWGPTGDFD-NH2)
Ki (Table 11, deep mutational scanning validation variants of AJAP-1WT, read-out: Ki (nM) mean ± SEM): 41 ± 2 nM

Structure (SMILES): CC[C@H](C)[C@H](NC(=O)[C@@H](NC(=O)[C@H](Cc1c[nH]c2ccccc12)NC(=O)[C@@H]1CCCN1C(C)=O)C(C)C)C(=O)N[C@H](C(=O)N[C@@H](Cc1c[nH]c2ccccc12)C(=O)NCC(=O)N1CCC[C@H]1C(=O)N[C@H](C(=O)N[C@H](C(=O)N[C@@H](CO)C(=O)N[C@@H](CCCNC(=N)N)C(=O)N[C@@H](CCC(=O)O)C(=O)N[C@@H](CC(=O)O)C(N)=O)C(C)C)[C@@H](C)O)C(C)C [PWVIVWGPTVSRED] (Ac-PWVIVWGPTVSRED-NH2)
Ki [2]: 302 ± 4 nM

Structure (SMILES): CC[C@H](C)[C@H](NC(=O)[C@H](C)NC(=O)[C@H](Cc1c[nH]c2ccccc12)NC(=O)[C@@H]1CCCN1C(C)=O)C(=O)N[C@H](C(=O)N[C@@H](Cc1c[nH]c2ccccc12)C(=O)NCC(=O)N1CCC[C@H]1C(=O)N[C@H](C(=O)N[C@H](C(=O)N[C@@H](CO)C(=O)N(C)[C@@H](CCCNC(=N)N)C(=O)N[C@@H](CCC(=O)O)C(=O)N[C@@H](CC(=O)O)C(N)=O)C(C)C)[C@@H](C)O)C(C)C (Ac-PWAIVWGPTVS[NMeR]ED-NH2)
Ki [3]: 502 ± 15 nM

Structure (SMILES): CC[C@H](C)[C@H](NC(=O)[C@H](C)N(C)C(=O)[C@H](Cc1c[nH]c2ccccc12)NC(=O)[C@@H]1CCCN1C(C)=O)C(=O)N[C@H](C(=O)N[C@@H](Cc1c[nH]c2ccccc12)C(=O)NCC(=O)N1CCC[C@H]1C(=O)N[C@H](C(=O)N[C@H](C(=O)N[C@@H](CO)C(=O)N[C@@H](CCCNC(=N)N)C(=O)N[C@@H](CCC(=O)O)C(=O)N[C@@H](CC(=O)O)C(N)=O)C(C)C)[C@@H](C)O)C(C)C [PW(N-Me-A)IVWGPTVSRED] (Ac-PW[NMeA]IVWGPTVSRED-NH2)
Ki [3]: 7230 ± 130 nM

Structure (SMILES): CC[C@H](C)[C@H](NC(=O)[C@H](C)NC(=O)[C@H](Cc1c[nH]c2ccccc12)NC(=O)[C@@H]1CCCN1C(C)=O)C(=O)N[C@H](C(=O)N[C@@H](Cc1c[nH]c2ccccc12)C(=O)NCC(=O)N1CCC[C@H]1C(=O)N[C@@H](C)C(=O)N[C@H](C(=O)N[C@@H](CO)C(=O)N[C@@H](CCCNC(=N)N)C(=O)N[C@@H](CCC(=O)O)C(=O)N[C@@H](CC(=O)O)C(N)=O)C(C)C)C(C)C [PWAIVWGPAVSRED] (Ac-PWAIVWGPAVSRED-NH2)
Ki [3]: 1030 ± 26 nM

Structure (SMILES): CC[C@H](C)[C@H](NC(=O)[C@H](Cc1c[nH]c2ccccc12)NC(=O)[C@H](CC(=O)O)NC(=O)[C@H](CC(=O)O)NC(=O)[C@H](CC(=O)O)NC(=O)[C@H](CCC(=O)O)NC(C)=O)C(=O)N[C@@H](CC(=O)O)C(=O)N[C@@H](Cc1c[nH]c2ccccc12)C(=O)N[C@@H](Cc1ccc(O)cc1)C(=O)N[C@@H](CC(=O)O)C(=O)N[C@@H](CO)C(=O)N[C@@H](CC(=O)O)C(=O)N[C@@H](CC(=O)O)C(=O)N[C@@H](CC(=O)O)C(=O)N[C@@H](CCCNC(=N)N)C(=O)N[C@@H](CCCNC(=N)N)C(=O)N[C@@H](CCCNC(=N)N)C(=O)N[C@@H](CCCNC(=N)N)C(=O)N[C@@H](CCCNC(=N)N)C(=O)N[C@@H](CCCNC(=N)N)C(=O)N[C@@H](CCCNC(=N)N)C(=O)N[C@@H](CCCNC(=N)N)C(N)=O [Peptide 16-R8] (Ac-EDDDWIDWYDSDDDRRRRRRRR-NH2)
Ki (CPP tagged peptides overview, SD1/2 binding affinity, mean ± SEM, n ≥ 3, read-out: Ki): 65 ± 1 nM | Ki (Table 14, CPPs tagged peptides, read-out: Ki (nM) mean ± SEM): 65.3 ± 1 nM

Structure (SMILES): CC(=O)N[C@@H](CCC(=O)O)C(=O)N[C@@H](CCC(=O)O)C(=O)N[C@@H](CC(=O)O)C(=O)N[C@@H](CC(=O)O)C(=O)N[C@@H](CO)C(=O)N[C@@H](CC(=O)O)C(=O)N[C@H](C(=O)N[C@@H](Cc1c[nH]c2ccccc12)C(=O)N[C@@H](Cc1c[nH]c2ccccc12)C(=O)NCC(=O)NCC(=O)N[C@@H](C)C(=O)N[C@@H](CC(=O)O)C(=O)N[C@H](C(=O)N[C@@H](CC(=O)O)C(=O)N[C@@H](Cc1ccc(O)cc1)C(=O)N[C@@H](C)C(=O)N[C@@H](CC(=O)O)C(=O)NCC(=O)NCC(=O)N[C@@H](CCC(=O)O)C(=O)N[C@@H](CC(=O)O)C(=O)N[C@@H](CCCCN)C(N)=O)[C@@H](C)O)C(C)C (Ac-EEDDSDVWWGGADTDYADGGEDK-NH2)
Ki (Table 4, truncation and elongation scans of APP epitope, read-out: Ki (nM) mean ± SEM): 392 ± 14 nM

Next, values leading:

Ki [1]: 270 ± 4 nM
Structure (SMILES): CC(=O)N[C@@H](CCC(=O)O)C(=O)N[C@@H](CC(=O)O)C(=O)N[C@@H](CC(=O)O)C(=O)N[C@@H](CO)C(=O)N[C@@H](CC(=O)O)C(=O)N[C@H](C(=O)N[C@@H](Cc1c[nH]c2ccccc12)C(=O)N[C@@H](Cc1c[nH]c2ccccc12)C(=O)N[C@@H](Cc1c[nH]cn1)C(=O)NCC(=O)N[C@@H](C)C(=O)N[C@@H](CC(=O)O)C(=O)N[C@H](C(=O)N[C@@H](CC(=O)O)C(N)=O)[C@@H](C)O)C(C)C (Ac-EDDSDVWWHGADTD-NH2)

Ki (AJAP-1probe, read-out: Ki): 1300 nM | Ki (Table 3, SPOT hit validation and previously reported peptides, read-out: Ki (nM) mean ± SEM): 1300 ± 28 nM
Structure (SMILES): CC(=O)N[C@@H](CO)C(=O)N[C@@H](C)C(=O)N[C@@H](CC(=O)O)C(=O)N[C@@H](C)C(=O)N[C@@H](CCC(=O)O)C(=O)N[C@@H](CCC(=O)O)C(=O)N[C@@H](CC(=O)O)C(=O)N[C@@H](CC(=O)O)C(=O)N[C@@H](CO)C(=O)N[C@@H](CC(=O)O)C(=O)N[C@H](C(=O)N[C@@H](Cc1c[nH]c2ccccc12)C(=O)N[C@@H](Cc1c[nH]c2ccccc12)C(=O)NCC(=O)NCC(N)=O)C(C)C [Peptide 12] (Ac-SADAEEDDSDVWWGG-NH2)

Ki (Table 8, Ala-, D-amino acids and N-methylation scans of AJAP-1WT, read-out: Ki (nM) mean ± SEM): 49 ± 2 nM
Structure (SMILES): CC[C@H](C)[C@H](NC(=O)[C@H](Cc1ccccc1)NC(=O)[C@H](C)NC(=O)[C@@H](NC(=O)[C@H](CCC(=O)O)NC(C)=O)[C@@H](C)O)C(=O)N[C@@H](C)C(=O)N[C@@H](Cc1c[nH]c2ccccc12)C(=O)NCC(=O)N1CCC[C@H]1C(=O)N[C@H](C(=O)NCC(=O)N[C@@H](CC(=O)O)C(=O)N[C@@H](CCC(=O)O)C(=O)N[C@@H](CC(=O)O)C(N)=O)[C@@H](C)O [ETAFIAWGPTGDED] (Ac-ETAFIAWGPTGDED-NH2)

Ki [2]: 417 ± 6 nM
Structure (SMILES): CC[C@H](C)[C@H](NC(=O)[C@H](C)NC(=O)[C@H](Cc1c[nH]c2ccccc12)NC(=O)[C@@H]1CCCN1C(C)=O)C(=O)N[C@H](C(=O)N[C@@H](Cc1c[nH]c2ccccc12)C(=O)NCC(=O)N1CCC[C@H]1C(=O)N[C@H](C(=O)N[C@@H](CC(=O)O)C(=O)N[C@@H](CO)C(=O)N[C@@H](CCCNC(=N)N)C(=O)N[C@@H](CCC(=O)O)C(=O)N[C@@H](CC(=O)O)C(N)=O)[C@@H](C)O)C(C)C [PWAIVWGPTDSRED] (Ac-PWAIVWGPTDSRED-NH2)

Ki [4]: 62 ± 1 nM | Ki [5]: 62 ± 1 nM | fold improved affinity compared to APPWT (relative to APPWT): ~10 fold
Structure (SMILES): CC(=O)N[C@@H](CCC(=O)O)C(=O)N[C@@H](CC(=O)O)C(=O)N[C@@H](CC(=O)O)C(=O)N[C@@H](CO)C(=O)N[C@@H](CC(=O)O)C(=O)N[C@H](C(=O)N[C@@H](Cc1c[nH]c2ccccc12)C(=O)N[C@@H](Cc1c[nH]c2ccccc12)C(=O)NCC(=O)N1CCC[C@H]1C(=O)N[C@H](C(=O)NCC(=O)N[C@@H](CC(=O)O)C(=O)N[C@@H](CCC(=O)O)C(=O)N[C@@H](CC(=O)O)C(N)=O)[C@@H](C)O)C(C)C [Peptide X, Ac-EDDSDVWWGPTGDED-NH2] (Ac-EDDSDVWWGPTGDED-NH2)

Ki [1]: 332 ± 13 nM
Structure (SMILES): CC(=O)N[C@@H](CCC(=O)O)C(=O)N[C@@H](CC(=O)O)C(=O)N[C@@H](CC(=O)O)C(=O)N[C@@H](CO)C(=O)N[C@@H](CC(=O)O)C(=O)N[C@H](C(=O)N[C@@H](Cc1c[nH]c2ccccc12)C(=O)N[C@@H](Cc1c[nH]c2ccccc12)C(=O)NCC(=O)N1CCC[C@H]1C(=O)N[C@@H](C)C(=O)N[C@@H](CC(=O)O)C(=O)N[C@H](C(=O)N[C@@H](CC(=O)O)C(N)=O)[C@@H](C)O)C(C)C (Ac-EDDSDVWWGPADTD-NH2)

Ki (Table 7, Ala-, D-amino acids and N-methylation scans of APPWT, read-out: Ki (nM) mean ± SEM): 3076 ± 22 nM
Structure (SMILES): CC(=O)N[C@@H](CCC(=O)O)C(=O)N[C@@H](CC(=O)O)C(=O)N[C@@H](CC(=O)O)C(=O)N[C@@H](CO)C(=O)N[C@@H](C)C(=O)N[C@H](C(=O)N[C@@H](Cc1c[nH]c2ccccc12)C(=O)N[C@@H](Cc1c[nH]c2ccccc12)C(=O)NCC(=O)NCC(=O)N[C@@H](C)C(=O)N[C@@H](CC(=O)O)C(=O)N[C@H](C(=O)N[C@@H](CC(=O)O)C(N)=O)[C@@H](C)O)C(C)C (Ac-EDDSAVWWGGADTD-NH2)

Ki [4]: 5.6 ± 0.7 nM | Ki [5]: 5.6 ± 0.7 nM
Structure (SMILES): CC[C@H](C)[C@H](NC(=O)[C@H](Cc1c[nH]c2ccccc12)NC(=O)[C@H](CO)NC(=O)[C@H](CC(=O)O)NC(=O)[C@H](CC(=O)O)NC(=O)[C@H](CCC(=O)O)NC(C)=O)C(=O)N[C@@H](CC(=O)O)C(=O)N[C@@H](Cc1c[nH]c2ccccc12)C(=O)NCC(=O)N1CCC[C@H]1C(=O)N[C@H](C(=O)NCC(=O)N[C@@H](CC(=O)O)C(=O)N[C@@H](CCC(=O)O)C(=O)N[C@@H](CC(=O)O)C(N)=O)[C@@H](C)O [Peptide 29, Ac-EDDSWIDWGPTGDED-NH2] (Ac-EDDSWIDWGPTGDED-NH2)
